The target in the assay is PBD1 (Homo sapiens, UniProt P53350). Description: FP-based inhibition assay. The class given is binding. As to conditions: read-out: PBD1 IC50 ± SD. As for the experimental part:
In the following, PBD1-3 fluorescence polarization (FP) binding assays were carried out for determining the Plk1 specificity. […] All samples were analyzed approximately 30 min after reaction in a 384-well format using the SpectraMax Paradigm multi-mode microplate detection platform (Molecular Devices). Data were analyzed after carrying out at least three independent experiments using GraphPad Prism software version 7.

The structures appear in SMILES notation.

Sequence of PBD1 (P53350 371-594 limits assumed): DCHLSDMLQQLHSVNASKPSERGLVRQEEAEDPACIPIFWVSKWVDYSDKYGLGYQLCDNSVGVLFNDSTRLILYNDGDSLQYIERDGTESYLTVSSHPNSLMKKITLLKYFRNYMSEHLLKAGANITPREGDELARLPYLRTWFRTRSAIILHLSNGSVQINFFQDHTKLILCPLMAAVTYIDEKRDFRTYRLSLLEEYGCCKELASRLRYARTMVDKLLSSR

As a reminder, the IC50 is the concentration that gives 50% inhibition. For the molecule `O=c1c2sc(Cl)cc2n2c(=S)[nH]nc2n1CC1CC1` [Compound 19, 7-Chloro-4-(cyclopropylmethyl)-1-thioxo-2,4-dihydrothieno[2,3-e][1,2,4]triazolo[4,3-a]pyrimidin-5 (1H)-one], the IC50 is 2.53 ± 0.18 nM.

The record behind these values is US20260272934A1 (The United States of America, as represented by the …, priority 2023, published 2026).
